Experimental data reported in patent US12466849B2, “Anti-viral and anti-tumoral compounds” (YEDA RESEARCH AND DEVELOPMENT CO. LTD, priority 2020, dated 2025).
≈ marks a conversion by molar mass, not a printed value.

Tests used:
[1] = target: T1, SARS-Cov2 RdRp (nsp12-nsp7-nsp8) (Severe acute respiratory syndrome coronavirus 2, UniProt P0DTD1); format: biochemical; settings: primer extension; analog at 100 uM, printed 100 mM
in vitro [2] = settings: male, SD, rat, plasma
[3] = test system: Human cytomegalovirus (HCMV), strain AD169; settings: for EC50 / EC90: drug concentration 0.048-150 μM
HCMV AD169 = assay: HCMV plaque reduction assay, MRC-5 cells, strain AD169; format: cell-based, Human cytomegalovirus; settings: hCMV AD169, MRC5 cells, plaque assay, 6-days duration
in vitro [4] = settings: both, human, plasma
[5] = target: T1, SARS-Cov2 RdRp (nsp12-nsp7-nsp8); format: biochemical; settings: after addition of GTP and CTP (third and fourth nucleotides)
[6] = test system: influenza/California/07/2009 (H1N1)pdm09; settings: for SI50 (SI): Influenza(H1N1), SI = CC50/EC50
[7] = test system: Tacaribe virus (TCRV, TRVL-11573); set-up: SI50 (SI): unit not given beside the values
[8] = test system: respiratory syncytial virus (RSV, A2); settings: for SI50 (SI): RSV, SI = CC50/EC50
[9] = test system: Influenza B/Florida/4/2006 (Yamagata); settings: for SI50 (SI): Influenza B, SI = CC50/EC50
[10] = test system: Rift Valley fever virus (RVFV)
[11] = test system: BK virus (BKV), Gardner strain; set-up: SI50 / SI90: unit not given beside the values
MERS-CoV (EMC) = format: cell-based; settings: SI = CC50/EC50
[12] = test system: dengue virus-2 (DENV-2, New Guinea C); settings: SI = CC50/EC50
[13] = test system: Epstein-Barr virus (EBV), Akata strain; set-up: SI50 / SI90: unit not given beside the values
[14] = test system: SARS-CoV-2 (USA-WA1/2020); settings: for SI50 (SI): SARS-CoV-2, SI = CC50/EC50
[15] = test system: enterovirus-68 (EV-68, US/DY/14-18953); settings: for SI50 (SI): EV-68, SI = CC50/EC50

## Nc1ccn([C@H]2CC[C@@H](CO)O2)c(=O)n1 [2-3 Dideoxycytidine]
adenovirus-5 (Ad5)
  CC50: >100 µg/mL
  EQ50: 1.8 µg/mL
  SI: >56

## O=c1ccn([C@@H]2O[C@H](COP(=O)(O)OP(=O)(O)OP(=O)(O)O)C[C@H]2O)c(=O)[nH]1 [3′-dUTP, 3′-deoxyuracil triphosphate, reference compound]
[1]
  incorporation into RNA by SARS-Cov2 RdRp (in words): same level of incorporation as ddhUTP

## COc1ccc([C@@H]2Sc3ccccc3N(CCN(C)C)C(=O)[C@@H]2OC(C)=O)cc1 [Diltiazem]
In vitro [2]
  half-life at 0.75 µM: 2.08 h

## Nc1nc2c(ncn2COC(CO)CO)c(=O)[nH]1 [GCV]
[3]
  CC50: > 150 µM
  EC50: 0.19 µM
  EC90: > 150 µM

## Nc1nc2c(ncn2COC(CO)CO)c(=O)[nH]1 [Ganciclovir, reference compound]
HCMV AD169
  EC50: 7.36 µM

## C#C[C@@]1(O)[C@H](O)[C@@H](CO)O[C@H]1n1ccc2c(N)ncnc21 [NITD008, reference compound]
Zika virus
  CC50: 44 µg/mL (≈ 0.152 mM)
  EQ50: 1.8 µg/mL
  SI: 24

## CC(C)[N+](C)(CCOC(=O)C1c2ccccc2Oc2ccccc21)C(C)C [Propantheline]
In vitro [4]
  half-life at 0.75 µM: 0.28 h

## N#C[C@@]1(c2ccc3c(N)ncnn23)O[C@H](COP(=O)(O)OP(=O)(O)OP(=O)(O)O)[C@@H](O)[C@H]1O [REM-TP, Remdesivir-TP, reference compound]
[5]
  chain termination of RNA synthesis (in words): did not cause chain termination
[1]
  incorporation into RNA by SARS-Cov2 RdRp (in words): incorporated into RNA as ATP analogs

## NC(=O)c1ncn([C@@H]2O[C@H](CO)[C@@H](O)[C@H]2O)n1 [Ribavirin, Ribavirin (Virazole), reference compound]
TCRV
  CC50: 820 µg/mL (≈ 3.36 mM)
  EQ50: 13 µg/mL
  SI: 63
[6]
  CC50: > 1000 µg/mL
  SI50 (SI): >130
[7]
  CC50: > 1000 µg/mL
  SI50 (SI): >190
Influenza A(H1N1)
  CC50: >1000 µg/mL
  EQ50: 4.6 µg/mL
  SI: >220
RSV
  CC50: 42 µg/mL (≈ 0.172 mM)
  EQ50: 7.3 µg/mL
  SI: 5.8
Influenza B
  CC50: >1000 µg/mL
  EQ50: 1.4 µg/mL
  SI: >710
[8]
  CC50: 310 µg/mL
  SI50 (SI): 16
Influenza A(H5N1)
  SI: >560
Influenza A(H5N1); MDCK cells without virus, positive control
  CC50: >1000 µg/mL
Influenza A(H5N1); influenza A(H5N1), MDCK cells, positive control
  EQ50: 1.8 µg/mL
[9]
  CC50: > 1000 µg/mL
  SI50 (SI): >130
[10]
  SI: 62
[10]; RVFV, Vero 76 cells, positive control
  EQ50: 14 µg/mL
[10]; Vero 76 cells without virus, positive control
  CC50: 870 µg/mL (≈ 3.56 mM)

## CC(C)(C)C(=O)SCCOP(=O)(OCCSC(=O)C(C)(C)C)OCC1=CC(O)C(n2cnc3c(N)ncnc32)O1 (centres unmarked) [SATE-ddhA]
[11]
  Activity: NA (key: NA (Not Active) SI50 = 0-3.9; MOD (Moderately Active) SI50 = 4-9.9; HI (Highly Active) SI50 = ≥10)
  CC50: 89.7 µM
  EC50: > 30 µM
  EC90: > 30 µM
  SI50: <3
  SI90: <3
MERS-CoV (EMC)
  SI50 (SI): 0
[6]
  CC50: 180 µM
  SI50 (SI): 0
[12]
  SI50 (SI): 0
[7]
  CC50: 58 µM
  SI50 (SI): 0
[8]
  CC50: 170 µM
  SI50 (SI): 0
[13]
  Activity: MOD (key: NA (Not Active) SI50 = 0-3.9; MOD (Moderately Active) SI50 = 4-9.9; HI (Highly Active) SI50 = ≥10)
  CC50: 55.8 µM
  EC50: 12.9 µM
  EC90: 26.8 µM
  SI50: 4
  SI90: 2
  activity against EBV (in words): moderately active
[14]
  CC50: 49 µM
  SI50 (SI): 0
[15]
  CC50: 2 µM
  SI50 (SI): 0
[9]
  CC50: 180 µM
  SI50 (SI): 0

## CC(C)(C)C(=O)SCCOP(=O)(OCCSC(=O)C(C)(C)C)OCC1=CC(O)C(n2ccc(N)nc2=O)O1 (centres unmarked) [SATE-ddhC]
[11]
  Activity: NA (key: NA (Not Active) SI50 = 0-3.9; MOD (Moderately Active) SI50 = 4-9.9; HI (Highly Active) SI50 = ≥10)
  CC50: > 150 µM
  EC50: 96 µM
  EC90: > 150 µM
  SI50: >2
  SI90: 1
MERS-CoV (EMC)
  SI50 (SI): 0
[6]
  CC50: 550 µM
  SI50 (SI): 0
[12]
  SI50 (SI): 0
[7]
  CC50: 210 µM
  SI50 (SI): 0
[8]
  CC50: 540 µM
  SI50 (SI): 0
[13]
  Activity: MOD (key: NA (Not Active) SI50 = 0-3.9; MOD (Moderately Active) SI50 = 4-9.9; HI (Highly Active) SI50 = ≥10)
  CC50: 124 µM
  EC50: 18.8 µM
  EC90: > 30 µM
  SI50: 7
  SI90: <4
  activity against EBV (in words): moderately active
[14]
  CC50: 410 µM
  SI50 (SI): 0
[15]
  CC50: > 100 µM
  SI50 (SI): 0
[9]
  CC50: > 1000 µM
  SI50 (SI): 0

## CC(C)(C)C(=O)SCCOP(=O)(OCCSC(=O)C(C)(C)C)OCC1=CC(O)C(n2cnc3c(=O)[nH]c(N)nc32)O1 (centres unmarked) [SATE-ddhG]
[11]
  Activity: HI (key: NA (Not Active) SI50 = 0-3.9; LO (Slightly Active) SI50 = 4-9.9; MOD (Moderately Active) SI50 = 10-19.9; HI (Highly Active) SI50 = ≥20)
  CC50: > 150 µM
  EC50: 5.32 µM
  EC90: 5.86 µM
  SI50: >28
  SI90: >26
  activity against BK virus (in words): highly active
MERS-CoV (EMC)
  SI50 (SI): 0
[6]
  CC50: > 1000 µM
  SI50 (SI): 0
[12]
  SI50 (SI): 0
[7]
  CC50: 610 µM
  SI50 (SI): 0
[8]
  CC50: > 1000 µM
  SI50 (SI): 0
[13]
  Activity: HI (key: NA (Not Active) SI50 = 0-3.9; MOD (Moderately Active) SI50 = 4-9.9; HI (Highly Active) SI50 = ≥10)
  CC50: 106 µM
  EC50: 2.98 µM
  EC90: > 30 µM
  SI50: 35
  SI90: <4
  activity against EBV (in words): highly active
[14]
  CC50: > 1000 µM
  SI50 (SI): 0
[15]
  CC50: 83 µM
  SI50 (SI): 0
[9]
  CC50: > 1000 µM
  SI50 (SI): 0

## CC(C)(C)C(=O)SCCOP(=O)(OCCSC(=O)C(C)(C)C)OCC1=CC(O)C(n2cnc3c(=O)[nH]cnc32)O1 (centres unmarked) [SATE-ddhI]
[11]
  Activity: NA (key: NA (Not Active) SI50 = 0-3.9; MOD (Moderately Active) SI50 = 4-9.9; HI (Highly Active) SI50 = ≥10)
  CC50: > 150 µM
  EC50: 115 µM
  EC90: > 150 µM
  SI50: >1
  SI90: 1
MERS-CoV (EMC)
  SI50 (SI): 0
[6]
  CC50: > 1000 µM
  SI50 (SI): 0
[12]
  SI50 (SI): 0
[7]
  CC50: 900 µM
  SI50 (SI): 0
[8]
  CC50: > 1000 µM
  SI50 (SI): 0
[13]
  Activity: MOD (key: NA (Not Active) SI50 = 0-3.9; MOD (Moderately Active) SI50 = 4-9.9; HI (Highly Active) SI50 = ≥10)
  CC50: > 150 µM
  EC50: 18.8 µM
  EC90: 81.9 µM
  SI50: >8
  SI90: >2
  activity against EBV (in words): moderately active
[14]
  CC50: 530 µM
  SI50 (SI): 0
[15]
  CC50: > 100 µM
  SI50 (SI): 0
[9]
  CC50: > 1000 µM
  SI50 (SI): 0

## C[C@H](Cn1cnc2c(N)ncnc21)OCP(=O)(O)O [TNV, reference compound]
JC virus (JCV)
  CC50: > 150 µM
  EC50: > 150 µM
  EC90: > 150 µM
[11]
  CC50: > 150 µM
  EC90: > 150 µM
  SI90: 1
[3]
  CC50: > 150 µM
  EC50: > 150 µM
  EC90: > 150 µM
[13]
  CC50: > 150 µM
  EC50: 45.8 µM
  EC90: > 150 µM
  SI50: >3
  SI90: 1

## Nc1ccn([C@@H]2OC(CO)=C[C@H]2O)c(=O)n1 [ddhC, ddh cytidine]
enterovirus-68 (EV-68)
  activity against enterovirus EV-68 (in words): exhibits some activity

## Nc1nc2c(ncn2[C@@H]2OC(COP(=O)(O)OP(=O)(O)OP(=O)(O)O)=C[C@H]2O)c(=O)[nH]1 [ddhGTP, 3′-deoxy-3′,4′-didehydro-guanosine-triphosphate]
[5]
  chain termination of RNA synthesis (in words): caused chain termination of RNA synthesis
[1]
  incorporation into RNA by SARS-Cov2 RdRp (in words): incorporates onto RNA as GTP analog
